Literature values as cited in patent publication US20100087769A1, “BIOCIDIC MEDICAL DEVICES, IMPLANTS AND WOUND DRESSINGS” (OPLON B.V., priority 2007, published 2010).
“Also recorded” adds a separate entry of the source. Where two headings read alike, the source gives them in different places.

Experiments:
[1] = test system: aerobic gram-negative bacilli, P. aeruginosa; conditions: spectrum as listed in the cell
[2] = not given; remark: listed apart in the source
[3] = topical
MRSA = conditions: topical; 1% silver sulfadiazine, 2% mupirocin, 2% fusidic acid
[4] = test system: other Candida spp. and fungi
[5] = test system: Aspergillus or Fusarium spp.; conditions: powder, 6 million units/g; four burn patients

In the case of `NCc1ccc(S(N)(=O)=O)cc1` [Mafenide acetate], the Antibacterial activity [1] is given as “Broad spectrum against”, the reduction in mortality (burns of 40 to 79% TBSA) is given as “greater than 10%” and the effect on mortality (patients with smaller or much larger burn injuries) is given as “only a minimal effect”. The Major toxicity ([2]; in vivo) was “Metabolic”.
For `O=[N+]([O-])[O-].[Ag+]` [Silver nitrate], the Antibacterial activity [1] is given as “Bacteriostatic against; also recorded: limited antifungal”, the Eschar penetration [3] is given as “None” and the Major toxicity ([2]; topical) is given as “Electrolyte”.
In the case of `CC(=O)O[C@H]1C[C@@]2(C)[C@@H](C[C@@H](O)[C@H]3[C@@]4(C)CC[C@@H](O)[C@@H](C)[C@@H]4CC[C@@]32C)/C1=C(\CCC=C(C)C)C(=O)O` [fusidic acid], the “reducing local wound bacterial counts and preventing systemic infection” value (MRSA) is given as “equally effective”.
For `C[C@@H]1[C@H](O)[C@@H](C)/C=C/C=C/CC/C=C/C=C/C=C/C=C/C(O[C@H]2O[C@H](C)[C@@H](O)[C@H](N)[C@@H]2O)CC2O[C@](O)(CC(O)C(O)CCC(O)CC(O)CC(O)CC(=O)O[C@H]1C)CC(O)C2C(=O)O` (stereo partly drawn) [Nystatin], the concentration that inhibits (Candida albicans) is listed as 3 µg/mL, the “concentration needed to inhibit” value [4] is listed as 6.25 µg/mL and the “treatment of angioinvasive fungal infections” value [5] is listed as “effective”.
For `C/C(=C\C(=O)OCCCCCCCCC(=O)O)C[C@@H]1OC[C@H](C[C@@H]2O[C@H]2[C@@H](C)[C@H](C)O)[C@@H](O)[C@H]1O` [mupirocin, pseudomonic acid A], the “reducing local wound bacterial counts and preventing systemic infection” value (MRSA) is listed as “equally effective”.
